# Data published in patent US6498243B1, “Epimorphin antagonist and process for producing it” (Sumitomo Electric Industries, Ltd., priority 1996, dated 2002).
# Columns and labels:
# Format in all cases: cell-based
# [1] = system: cell strain C3H/10T1/2clone8; assay: Cell adhesion to coated dishes (O.D. at 260 nm of bound cells); conditions: one hour; for cell adhesion compared with modified epimorphins: coated dishes, C3H/10T1/2clone8 cells; for O.D. at 260 nm (number of the cells bound to the dishes, indicator of cell adhesion): specimen coated on suspension culture dishes, C3H/10T1/2clone8 cells in DH medium with 20 mg/ml bovine serum albumin, control (untreated) 0.0194
# Text: The polypeptides A, B and C of the present invention obtained in Example 1, and the modified epimorphins (fragment (123) and fragment (2), each having the same cell adhesion capacity as that of natural type epimorphin) were coated on suspension culture medium dishes. After drying, the dishes were washed once with 8M urea/lysis buffer. Then, the dishes were washed 5 times with PBS^−, and the cell strain C3H/10T1/2clone8 (Dainippon Pharmaceutical Co., Ltd., 08-226) was sprinkled on the dishes using D-MEM/F-12 culture medium (GIBCO BRL, 12400-024; hereinafter called “DH medium”) containing 20 mg/ml bovine serum albumin (SIGMA, A-7030). One hour later, the dishes were washed 3 times with PBS^−, and then the cells were collected using 0.5N NaOH. The O.D. at 260 nm was measured to determine the number of the cells bound to the dishes. The cell count was used as an indicator of the cell adhesion of each specimen. The O.D.'s found were 1.5237 for polypeptide A, 1.4251 for polypeptide B, 1.4697 for polypeptide C, 1.4959 for fragment (123), 1.4478 for fragment (2), and 0.0194 for control (untreated).
# [2] = system: morphogenetic action of epimorphin on a pulmonary primordium; assay: Inhibitory action on morphogenesis of bronchus, organ culture of pulmonary primordium; conditions: 0.35 mg/ml in DH medium; ICR mouse fetal pulmonary primordium (12 days of gestation); 3 days of culture; 5% CO2 at 37° C.
# Protocol: (§1) A pulmonary primordium was removed from the fetus of the ICR pregnant mouse (Nippon Charles River, 12 days of gestation) under a stereoscopic microscope. The pulmonary primordium taken was placed on Nuclepore membrane filter (SN 110419) floated on a culture medium (DH medium, or 0.35 mg/ml polypeptide A-containing DH medium). Organ culture was performed in 5% CO2 at 37° C. to investigate the effect of polypeptide A on the morphogenesis of the bronchus. […] This manner of inhibition of morphogenesis was exactly the same as in treatment with MC-1, i.e., antibodies inhibiting the function of epimorphin.
# [3] = system: hair follicle morphogenetic action of epimorphin on a maxillary skin; assay: Inhibitory action on morphogenesis of maxillary skin (hair follicle), organ culture; conditions: 0.35 mg/ml in DH medium; ICR mouse fetal maxillary skin (13 days of gestation); 3 days of culture; 5% CO2 at 37° C.
# Protocol: as §1, with “maxillary skin” for “pulmonary primordium”, “13” for “12”, “hair follicle.” for “bronchus.”
Substance,cell adhesion compared with modified epimorphins [1],"O.D. at 260 nm (number of the cells bound to the dishes, indicator of cell adhesion) [1]",morphogenesis of the bronchus [2],morphogenesis of hair follicles [3]
"polypeptide B: 39 amino acids, 1st (N-terminal) to 39th of the functional domain (SEQ ID NO: 8) of natural type mouse epimorphin (NGNRTSVDLRIRRTQHSVLSRKFVDVMAEYNEAQILFRE; listed as Mus musculus)",cell adhesion comparable to that of the modified epimorphins,1.4251,–,–
"polypeptide A: 19 amino acids, 1st (N-terminal) to 19th of the functional domain (SEQ ID NO: 8) of natural type mouse epimorphin, chemically synthesized (NGNRTSVDLRIRRTQHSVL; listed as Mus musculus)",cell adhesion comparable to that of the modified epimorphins,1.5237,markedly inhibited,markedly inhibited
"polypeptide C: 41 amino acids, 1st (N-terminal) to 41st of the functional domain (SEQ ID NO: 8) of natural type mouse epimorphin (NGNRTSVDLRIRRTQHSVLSRKFVDVMAEYNEAQILFRERS; listed as Mus musculus)",cell adhesion comparable to that of the modified epimorphins,1.4697,–,–
